According to ChEMBL document CHEMBL3044680, “Synthesis, characterization, and antimicrobial studies of novel 1,3,4-thiadiazolium-5-thiolates” (2012):
Values after ≈ are worked out from the molar mass of the structure shown.

Columns and labels:
Assay type in all cases: functional
Staphylococcus aureus [1] = test: Antimicrobial activity against Staphylococcus aureus after overnight incubation by broth dilution method
Bacillus subtilis [2] = test: Antimicrobial activity against Bacillus subtilis after overnight incubation by broth dilution method
Escherichia coli [3] = test: Antimicrobial activity against Escherichia coli at 200 ug/ml after 48 hr by cup-plate method; details: read-out: IZ
Staphylococcus aureus [4] = test: Antimicrobial activity against Staphylococcus aureus at 200 ug/ml after 48 hr by cup-plate method; details: read-out: IZ
Bacillus subtilis [5] = test: Antimicrobial activity against Bacillus subtilis at 200 ug/ml after 48 hr by cup-plate method; details: read-out: IZ
Pseudomonas aeruginosa [6] = test: Antimicrobial activity against Pseudomonas aeruginosa at 200 ug/ml after 48 hr by cup-plate method; details: read-out: IZ
Escherichia coli [7] = test: Antimicrobial activity against Escherichia coli after overnight incubation by broth dilution method
Pseudomonas aeruginosa [8] = test: Antimicrobial activity against Pseudomonas aeruginosa after overnight incubation by broth dilution method

Compound | MIC (Staphylococcus aureus [1]) | MIC (Bacillus subtilis [2]) | MIC (Escherichia coli [7]) | MIC (Pseudomonas aeruginosa [8]) | zone of inhibition at 200 µg/mL (Escherichia coli [3]) | zone of inhibition at 200 µg/mL (Staphylococcus aureus [4]) | zone of inhibition at 200 µg/mL (Bacillus subtilis [5]) | zone of inhibition at 200 µg/mL (Pseudomonas aeruginosa [6])
O=C(c1ccc(Nc2nc(-c3ccccc3)nc3ccccc23)cc1)[n+]1nc([S-])sc1-c1ccccc1 | 16 µg/mL (≈ 30.9 µM) | 16 µg/mL (≈ 30.9 µM) | 8 µg/mL (≈ 15.5 µM) | 4 µg/mL (≈ 7.73 µM) | 20 mm | 19 mm | 18 mm | 24 mm
O=C(c1ccc(Nc2nc(-c3ccccc3)nc3ccccc23)cc1)[n+]1nc([S-])sc1-c1cccc([N+](=O)[O-])c1 | 8 µg/mL (≈ 14.2 µM) | 32 µg/mL (≈ 56.9 µM) | 16 µg/mL (≈ 28.4 µM) | 8 µg/mL (≈ 14.2 µM) | 20 mm | 21 mm | 16 mm | 22 mm
Cc1sc([S-])n[n+]1C(=O)c1ccc(Nc2nc(-c3ccccc3)nc3ccccc23)cc1 | 16 µg/mL (≈ 35.1 µM) | 8 µg/mL (≈ 17.6 µM) | 8 µg/mL (≈ 17.6 µM) | 4 µg/mL (≈ 8.78 µM) | 20 mm | 19 mm | 21 mm | 23 mm
O=C(c1ccc(Nc2nc(-c3ccccc3)nc3ccccc23)cc1)[n+]1nc([S-])sc1-c1cc([N+](=O)[O-])ccc1Cl | 4 µg/mL (≈ 6.7 µM) | 8 µg/mL (≈ 13.4 µM) | 4 µg/mL (≈ 6.7 µM) | 2 µg/mL (≈ 3.35 µM) | 24 mm | 23 mm | 22 mm | 26 mm
O=C(O)c1cn(C2CC2)c2cc(N3CCNCC3)c(F)cc2c1=O [CIPROFLOXACIN] | 1 µg/mL (≈ 3.02 µM) | 0.5 µg/mL (≈ 1.51 µM) | – | – | 38 mm | 31 mm | 35 mm | 41 mm
O=C(c1ccc(Nc2nc(-c3ccccc3)nc3ccccc23)cc1)[n+]1nc([S-])sc1-c1ccc(Cl)cc1 | 16 µg/mL (≈ 29 µM) | 8 µg/mL (≈ 14.5 µM) | 8 µg/mL (≈ 14.5 µM) | 4 µg/mL (≈ 7.25 µM) | 22 mm | 19 mm | 21 mm | 24 mm
O=C(c1ccc(Nc2nc(-c3ccccc3)nc3ccccc23)cc1)[n+]1nc([S-])sc1-c1ccc([N+](=O)[O-])cc1 | 32 µg/mL (≈ 56.9 µM) | 16 µg/mL (≈ 28.4 µM) | 16 µg/mL (≈ 28.4 µM) | 32 µg/mL (≈ 56.9 µM) | 18 mm | 16 mm | 19 mm | 15 mm

The next lines start with results.

MIC (Staphylococcus aureus [1]) | MIC (Bacillus subtilis [2]) | MIC (Escherichia coli [7]) | MIC (Pseudomonas aeruginosa [8]) | Compound | zone of inhibition at 200 µg/mL (Escherichia coli [3]) | zone of inhibition at 200 µg/mL (Staphylococcus aureus [4]) | zone of inhibition at 200 µg/mL (Bacillus subtilis [5]) | zone of inhibition at 200 µg/mL (Pseudomonas aeruginosa [6])
8 µg/mL (≈ 14.5 µM) | 8 µg/mL (≈ 14.5 µM) | 16 µg/mL (≈ 28.9 µM) | 8 µg/mL (≈ 14.5 µM) | O=C(c1ccc(-n2c(-c3ccccc3)nc3ccccc3c2=O)cc1)[n+]1nc([S-])sc1-c1ccc(Cl)cc1 | 16 mm | 22 mm | 20 mm | 21 mm
4 µg/mL (≈ 7.71 µM) | 2 µg/mL (≈ 3.86 µM) | 2 µg/mL (≈ 3.86 µM) | 8 µg/mL (≈ 15.4 µM) | O=C(c1ccc(-n2c(-c3ccccc3)nc3ccccc3c2=O)cc1)[n+]1nc([S-])sc1-c1ccccc1 | 28 mm | 24 mm | 25 mm | 22 mm
8 µg/mL (≈ 13.4 µM) | 64 µg/mL (≈ 107 µM) | 8 µg/mL (≈ 13.4 µM) | 4 µg/mL (≈ 6.69 µM) | O=C(c1ccc(-n2c(-c3ccccc3)nc3ccccc3c2=O)cc1)[n+]1nc([S-])sc1-c1ccc(Cl)c([N+](=O)[O-])c1 | 22 mm | 20 mm | 14 mm | 24 mm
64 µg/mL (≈ 114 µM) | 64 µg/mL (≈ 114 µM) | 64 µg/mL (≈ 114 µM) | – | O=C(c1ccc(-n2c(-c3ccccc3)nc3ccccc3c2=O)cc1)[n+]1nc([S-])sc1-c1cccc([N+](=O)[O-])c1 | 13 mm | 11 mm | 15 mm | 10 mm
8 µg/mL (≈ 13.5 µM) | 4 µg/mL (≈ 6.75 µM) | 4 µg/mL (≈ 6.75 µM) | 8 µg/mL (≈ 13.5 µM) | COc1ccc(-c2sc([S-])n[n+]2C(=O)c2ccc(Nc3nc(-c4ccccc4)nc4ccccc34)cc2)cc1[N+](=O)[O-] | 23 mm | 22 mm | 24 mm | 22 mm
2 µg/mL (≈ 3.34 µM) | 16 µg/mL (≈ 26.8 µM) | 16 µg/mL (≈ 26.8 µM) | 8 µg/mL (≈ 13.4 µM) | O=C(c1ccc(-n2c(-c3ccccc3)nc3ccccc3c2=O)cc1)[n+]1nc([S-])sc1-c1cc([N+](=O)[O-])ccc1Cl | 19 mm | 26 mm | 18 mm | 22 mm
16 µg/mL (≈ 27 µM) | 32 µg/mL (≈ 53.9 µM) | 32 µg/mL (≈ 53.9 µM) | 2 µg/mL (≈ 3.37 µM) | COc1ccc(-c2sc([S-])n[n+]2C(=O)c2ccc(-n3c(-c4ccccc4)nc4ccccc4c3=O)cc2)cc1[N+](=O)[O-] | 15 mm | 19 mm | 16 mm | 27 mm
8 µg/mL (≈ 13.4 µM) | 16 µg/mL (≈ 26.8 µM) | 32 µg/mL (≈ 53.6 µM) | 8 µg/mL (≈ 13.4 µM) | O=C(c1ccc(Nc2nc(-c3ccccc3)nc3ccccc23)cc1)[n+]1nc([S-])sc1-c1ccc(Cl)c([N+](=O)[O-])c1 | 15 mm | 20 mm | 19 mm | 22 mm
8 µg/mL (≈ 14.2 µM) | 4 µg/mL (≈ 7.1 µM) | 4 µg/mL (≈ 7.1 µM) | 8 µg/mL (≈ 14.2 µM) | O=C(c1ccc(-n2c(-c3ccccc3)nc3ccccc3c2=O)cc1)[n+]1nc([S-])sc1-c1ccc([N+](=O)[O-])cc1 | 23 mm | 20 mm | 24 mm | 22 mm
1 µg/mL (≈ 2.19 µM) | 8 µg/mL (≈ 17.5 µM) | 32 µg/mL (≈ 70.1 µM) | 16 µg/mL (≈ 35 µM) | Cc1sc([S-])n[n+]1C(=O)c1ccc(-n2c(-c3ccccc3)nc3ccccc3c2=O)cc1 | 17 mm | 28 mm | 22 mm | 18 mm
